Test results taken from patent publication US20230165835A1, “METHODS OF TREATING ACUTE LUNG INJURY USING EBSELEN” (SOUND PHARMACEUTICALS INC., priority 2020, published 2023).

Legend:
[1] = test system: SARS-CoV-2; assay: Reduction of SARS-CoV-2 viral load in Vero E6 cells (image based assay of Jin et al.); type: cell-based; details: Severe acute respiratory syndrome coronavirus 2, Vero C1008, read-out: EC50, reduction in viral load in Vero E6 cells, SARS-CoV-2; ebselen 100 nM to 1000 μM in DMSO or EtOH, remdesivir 1 nM to 10 μM
[2] = test system: Vero E6 cells; assay: Cytotoxicity / cell viability in Vero E6 cells; type: cell-based; details: ebselen: at ranges slightly higher than EC50
[3] = test system: SARS-CoV-2; assay: Hamster model of SARS-CoV-2 disease transmission and progression, viral load (PFU); type: in vivo, Golden Syrian Hamsters; details: 15 mg/kg
Procedure: 24 hours prior to nasal inoculation with SARS-CoV-2, Golden Syrian Hamsters were dosed with ebselen, saline and remdesivir at 15 mg/kg. Samples were taken from nares (PFU/swab) on days 1, 2 and 3, and from the nasal turbinates and cranial & caudal lung tissue (PFU/100 mg) on day 7.

[4] = human, in vivo, iv

CCC(CC)COC(=O)[C@H](C)N[P@](=O)(OC[C@H]1O[C@@](C#N)(c2ccc3c(N)ncnn23)[C@H](O)[C@@H]1O)Oc1ccccc1 [remdesivir]
EC50 [1]: 7 µM | effect on cell viability [2]: no effect on cell viability | PFU/swab (nares) Day 1 ([3]; 24 hours prior to nasal inoculation, saline 2.7E+04): 1.1E+04 PFU/swab | PFU/swab (nares) Day 3 ([3]; 24 hours prior to nasal inoculation, saline 5.5E+02): 3.8E+03 PFU/swab | PFU/swab (nares) Day 2 ([3]; 24 hours prior to nasal inoculation, saline 7.5E+03): 3.1E+03 PFU/swab | PFU/100 mg Cranial lung ([3]; day 7, saline 4.9E+06): 4.4E+06 PFU/100 mg | PFU/100 mg Turbinates ([3]; day 7, saline 5.5E+07): 4.0E+02 PFU/100 mg | PFU/100 mg Caudal lung ([3]; day 7, saline 6.1E+06): 1.2E+07 PFU/100 mg

NC[C@H]1O[C@H](O[C@H]2[C@H](O)[C@@H](O[C@H]3O[C@H](CO)[C@@H](O)[C@H](N)[C@H]3O)[C@H](N)C[C@@H]2N)[C@H](N)C[C@@H]1O [tobramycin]
% Responders (Bilateral), Conv + SRO ([4]; 4 weeks): 33% | % Responders (Bilateral), Conventional ([4]; 4 weeks): 0% | % Responders (Bilateral), DPOAE ([4]; 4 weeks): 40% | % Responders (Bilateral), SRO ([4]; 4 weeks): 33% | % Responders (Bilateral), WINT ([4]; 4 weeks): 7% | % Responders (Unilateral), Conv + SRO ([4]; 4 weeks): 60% | % Responders (Unilateral), Conventional ([4]; 4 weeks): 27% | % Responders (Unilateral), DPOAE ([4]; 4 weeks): 40% | % Responders (Unilateral), SRO ([4]; 4 weeks): 53% | % Responders (Unilateral), WINT ([4]; 4 weeks): 33% | % Responders, Conv + SRO ([4]; 4 weeks): 93% | % Responders, DPOAE ([4]; 4 weeks): 80% | % Responders, SRO ([4]; 4 weeks): 87% | % Responders, TFI ([4]; 4 weeks): 8% | % Responders, TL ([4]; 4 weeks): 15% | % Responders, VSS ([4]; 4 weeks): 8% | % Responders, WINT ([4]; 4 weeks): 40% | % Responders, Conventional ([4]; 4 weeks post-treatment): 27%
